In patent EP4667458A1 (Kanaph Therapeutics Inc., priority 2023, dated 2024):

molecular target: T1, KRAS^G12C::SOS1 (Homo sapiens, UniProt Q07889); assay: KRAS G12C::SOS1 protein-protein interaction (PPI) inhibition assay (HTRF binding kit); conditions: not given
T1 sequence (Q07889 1-1333): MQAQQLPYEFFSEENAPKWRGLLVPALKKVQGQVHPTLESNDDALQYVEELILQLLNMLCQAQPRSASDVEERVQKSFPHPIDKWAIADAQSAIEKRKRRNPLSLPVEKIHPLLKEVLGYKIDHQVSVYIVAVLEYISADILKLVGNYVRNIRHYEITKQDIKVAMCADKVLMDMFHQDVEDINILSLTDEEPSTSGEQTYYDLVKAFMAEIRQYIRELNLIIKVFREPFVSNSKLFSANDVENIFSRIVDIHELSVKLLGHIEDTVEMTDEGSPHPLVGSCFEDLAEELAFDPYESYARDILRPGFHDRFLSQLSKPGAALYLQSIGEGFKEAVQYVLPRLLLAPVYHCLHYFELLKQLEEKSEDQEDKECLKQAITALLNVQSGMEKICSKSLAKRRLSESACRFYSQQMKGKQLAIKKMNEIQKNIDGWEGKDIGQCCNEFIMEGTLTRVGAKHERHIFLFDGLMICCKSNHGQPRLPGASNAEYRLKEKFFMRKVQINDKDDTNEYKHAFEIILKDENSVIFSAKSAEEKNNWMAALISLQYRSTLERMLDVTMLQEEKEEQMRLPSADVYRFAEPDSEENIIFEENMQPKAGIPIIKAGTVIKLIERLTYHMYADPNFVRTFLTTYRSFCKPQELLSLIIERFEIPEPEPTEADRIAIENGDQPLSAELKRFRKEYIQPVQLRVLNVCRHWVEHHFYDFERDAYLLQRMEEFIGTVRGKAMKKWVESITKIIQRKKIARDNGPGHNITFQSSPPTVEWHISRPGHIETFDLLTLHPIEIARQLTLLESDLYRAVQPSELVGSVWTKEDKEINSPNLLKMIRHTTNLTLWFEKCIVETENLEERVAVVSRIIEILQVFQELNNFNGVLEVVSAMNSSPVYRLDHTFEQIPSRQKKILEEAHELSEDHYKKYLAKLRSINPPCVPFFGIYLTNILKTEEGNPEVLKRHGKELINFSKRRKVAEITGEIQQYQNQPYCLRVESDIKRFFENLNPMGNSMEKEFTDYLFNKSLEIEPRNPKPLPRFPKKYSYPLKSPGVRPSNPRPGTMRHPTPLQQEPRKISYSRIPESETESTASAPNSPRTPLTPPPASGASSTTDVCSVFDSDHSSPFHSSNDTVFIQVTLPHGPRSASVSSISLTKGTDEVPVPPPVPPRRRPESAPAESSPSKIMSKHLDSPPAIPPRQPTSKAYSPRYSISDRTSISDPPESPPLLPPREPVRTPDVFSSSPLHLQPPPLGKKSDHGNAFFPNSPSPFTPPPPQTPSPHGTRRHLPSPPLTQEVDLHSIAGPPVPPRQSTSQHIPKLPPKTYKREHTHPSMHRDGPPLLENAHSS

Row | Compound | IC50
1 | CCn1cc(-n2nc(C(=O)N[C@H](C)c3ccc(-c4cc(Cl)ccc4CNC)s3)ccc2=O)cn1 [Example 405] | < 1 µM
2 | C[C@@H](NC(=O)c1nn(-c2ccccc2F)c(=O)cc1N)c1cccc(C(F)(F)CO)c1F [Example 379, 4-amino-N-[(1R)-1-[3-(1,1-difluoro-2-hydroxy-ethyl)-2-fluorophenyl]ethyl]-1-(2-fluorophenyl)-6-oxo-pyridazine-3-carboxamide] | < 1 µM
3 | C[C@@H](NC(=O)c1ccc(=O)n(-c2ccc3cnn(C)c3c2)n1)c1cc(N)cc(C(F)(F)F)c1 [Example 236, N-[(1R)-1-[3-amino-5-(trifluoromethyl)phenyl]ethyl]-1-(1-methyl-1H-indazol-6-yl)-6-oxo-1,6-dihydropyridazine-3-carboxamide] | < 1 µM
4 | CCOc1ccc(-n2nc(C(=O)N[C@H](C)c3cc(N)cc(C(F)(F)F)c3)ccc2=O)cc1 [Example 189, (R)-N-(1-(3-amino-5-(trifluoromethyl)phenyl)ethyl)-1-(4-ethoxyphenyl)-6-oxo-1,6-dihydropyridazine-3-carboxamide] | < 1 µM
5 | C[C@@H](NC(=O)c1ccc(=O)n(-c2cccc(-c3ccn[nH]3)c2)n1)c1cc(N)cc(C(F)(F)F)c1 [Example 329, N-[(1R)-1-[3-amino-5-(trifluoromethyl)phenyl]ethyl]-6-oxo-1-[3-(1H-pyrazol-5-yl)phenyl]pyridazine-3-carboxamide] | < 1 µM
6 | C[C@@H](NC(=O)c1ccc(=O)n(-c2cccc(C(=O)OC(C)(C)C)c2)n1)c1cc(N)cc(C(F)(F)F)c1 [Example 248, Tert-butyl 3-[3-[[(1R)-1-[3-amino-5-(trifluoromethyl)phenyl]ethyl]carbamoyl]-6-oxo-pyridazin-1-yl]benzoate] | < 1 µM
7 | C[C@@H](NC(=O)c1ccc(=O)n(-c2cccc(-c3ncnn3C)c2)n1)c1cc(N)cc(C(F)(F)F)c1 [Example 328, N-[(1R)-1-[3-amino-5-(trifluoromethyl)phenyl]ethyl]-1-[3-(2-methyl-1,2,4-triazol-3-yl)phenyl]-6-oxo-pyridazine-3-carboxamide] | < 1 µM
8 | Cc1cc(C(=O)N[C@H](C)c2cc(N)cc(C(F)(F)F)c2)nn(-c2ccccc2)c1=O [Example 214, N-[(1R)-1-[3-amino-5-(trifluoromethyl)phenyl]ethyl]-5-methyl-6-oxo-1-phenyl-pyridazine-3-carboxamide] | < 1 µM
9 | C[C@@H](NC(=O)c1ccc(=O)n(-c2ccn(C)n2)n1)c1cc(N)cc(C(F)(F)F)c1 [Example 387, N-[(1R)-1-[3-amino-5-(trifluoromethyl)phenyl]ethyl]-1-(1-methylpyrazol-3-yl)-6-oxo-pyridazine-3-carboxamide] | < 1 µM
10 | CNCc1ccc(F)cc1-c1ccc([C@@H](C)NC(=O)c2ccc(=O)n(-c3cccc(C(=O)N(C)C)c3F)n2)s1 [Example 297, 1-[3-(dimethylcarbamoyl)-2-fluoro-phenyl]-N-[(1R)-1-[5-[5-fluoro-2-(methylaminomethyl)phenyl]-2-thienyl]ethyl]-6-oxo-pyridazine-3-carboxamide] | < 1 µM
11 | CNCc1ccc(Cl)cc1-c1ccc([C@@H](C)NC(=O)c2ccc(=O)n(-c3cccnc3F)n2)s1 [Example 270, N-[(1R)-1-[5-[5-chloro-2-(methylaminomethyl)phenyl]-2-thienyl]ethyl]-1-(2-fluoro-3-pyridyl)-6-oxo-pyridazine-3-carboxamide] | < 1 µM
12 | C[C@@H](NC(=O)c1ccc(=O)n(-c2ccccc2)n1)c1cc(O)cc(F)c1 [Example 219, N-[(1R)-1-(3-fluoro-5-hydroxy-phenyl)ethyl]-6-oxo-1-phenyl-pyridazine-3-carboxamide] | < 1 µM
13 | C[C@@H](NC(=O)c1ccc(=O)n(-c2cccc(-c3nnco3)c2)n1)c1cc(N)cc(C(F)(F)F)c1 [Example 235, N-[(1R)-1-[3-amino-5-(trifluoromethyl)phenyl]ethyl]-1-[3-(1,3,4-oxadiazol-2-yl)phenyl]-6-oxo-1,6-dihydropyridazine-3-carboxamide] | < 1 µM
14 | C[C@@H](NC(=O)c1ccc(=O)n(-c2ccccc2F)n1)c1cccc(C(F)(F)CN)c1F [Example 243, N-[(1R)-1-[3-(2-amino-1,1-difluoro-ethyl)-2-fluoro-phenyl]ethyl]-1-(2-fluorophenyl)-6-oxo-pyridazine-3-carboxamide] | < 1 µM
15 | C[C@@H](NC(=O)c1ccc(=O)n(-c2cccc(C(=O)NCCN(C)C)c2)n1)c1cc(N)cc(C(F)(F)F)c1 [Example 251, N-[(1R)-1-[3-amino-5-(trifluoromethyl)phenyl]ethyl]-1-[3-[2-(dimethylamino)ethylcarbamoyl]phenyl]-6-oxo-pyridazine-3-carboxamide] | < 1 µM
16 | C[C@@H](NC(=O)c1ccc(=O)n(CC2CC2)n1)c1cc(N)cc(C(F)(F)F)c1 [Example 224, N-[(1R)-1-[3-amino-5-(trifluoromethyl)phenyl]ethyl]-1-(cyclopropylmethyl)-6-oxo-pyridazine-3-carboxamide] | < 1 µM
17 | C[C@@H](NC(=O)c1ccc(=O)n(-c2cccnc2)c1)c1cc(N)cc(C(F)(F)F)c1 [Example 176, N-[(1R)-1-[3-amino-5-(trifluoromethyl)phenyl]ethyl]-6-oxo-1-(3-pyridyl)pyridine-3-carboxamide] | > 10 µM
18 | CNCc1ccc(F)cc1-c1ccc([C@@H](C)NC(=O)c2ccc(=O)n(-c3cccc(-c4cnnn4C)c3)n2)s1 [Example 413] | < 1 µM
19 | CNCc1c(F)cccc1-c1ccc([C@@H](C)NC(=O)c2ccc(=O)n(-c3cccnc3F)n2)s1 [Example 409] | < 1 µM
20 | COc1ccc(-n2nc(C(=O)N[C@H](C)c3cccc(C(F)(F)CO)c3F)ccc2=O)cc1C(=O)N(C)C [Example 206, N-[(1R)-1-[3-(1,1-difluoro-2-hydroxy-ethyl)-2-fluoro-phenyl]ethyl]-1-[3-(dimethylcarbamoyl)-4-methoxy-phenyl]-6-oxo-pyridazine-3-carboxamide] | < 1 µM
21 | C[C@@H](NC(=O)c1ccc(=O)n(-c2cccc(-c3cnco3)c2)n1)c1cc(N)cc(C(F)(F)F)c1 [Example 343, N-[(1R)-1-[3-amino-5-(trifluoromethyl)phenyl]ethyl]-1-(3-oxazol-5-ylphenyl)-6-oxo-pyridazine-3-carboxamide] | < 1 µM
22 | C[C@@H](NC(=O)c1ccc(=O)n(-c2cccc(C(=O)N(C)C)c2F)n1)c1cccc(C(F)(F)CO)c1F [Example 353, N-[(1R)-1-[3-(1,1-difluoro-2-hydroxy-ethyl)-2-fluoro-phenyl]ethyl]-1-[3-(dimethylcarbamoyl)-2-fluoro-phenyl]-6-oxo-pyridazine-3-carboxamide] | < 1 µM
23 | C[C@@H](NC(=O)c1nn(-c2ccccc2F)c(=O)cc1O)c1cccc(C(F)(F)CO)c1F [Example 365, N-[(1R)-1-[3-(1,1-difluoro-2-hydroxy-ethyl)-2-fluoro-phenyl]ethyl]-1-(2-fluorophenyl)-4-hydroxy-6-oxo-pyridazine-3-carboxamide] | > 10 µM
24 | C[C@@H](NC(=O)c1ccc(=O)n(C)n1)c1cc(N)cc(C(F)(F)F)c1 [Example 228, N-[(1R)-1-[3-amino-5-(trifluoromethyl)phenyl]ethyl]-1-methyl-6-oxo-pyridazine-3-carboxamide] | < 1 µM
25 | COc1ccc(F)c(-n2cc(C(=O)N[C@H](C)c3cc(N)cc(C(F)(F)F)c3)ccc2=O)c1 [Example 178, N-[(1R)-1-[3-amino-5-(trifluoromethyl)phenyl]ethyl]-1-(2-fluoro-5-methoxy-phenyl)-6-oxo-pyridine-3-carboxamide] | < 1 µM
26 | C[C@@H](NC(=O)c1ccc(=O)n(-c2ccncc2)c1)c1cccc(C(F)(F)CO)c1F [Example 162, N-[(1R)-1-[3-(1,1-difluoro-2-hydroxy-ethyl)-2-fluoro-phenyl]ethyl]-6-oxo-1-(4-pyridyl)pyridine-3-carboxamide] | < 1 µM

same assay, conditions: read-out: KRAS ^G12C::SOS1 PPI assay (IC50 range, Grade); maximum concentration 3 µM, 8 concentrations, three replicates

Row | Compound | IC50
27 | N-[(1R)-1-[3-amino-5-(trifluoromethyl)phenyl]ethyl]-6-oxo-1-[3-(4-pyridyl)phenyl]pyridazine-3-carboxamide [Example 346] | < 1 µM
